Test systems include MDA-N; HOP-18 NSCLC; DMS 114 small cell lung; SNB-78 CNS; DLD-1 colon; BT-549 breast; DMS 273 small cell lung; RXF-631 renal; XF 498 CNS.
Experiment in all cases: NCI-60 cell line screen, 48 h

Molecules are shown by their SMILES. Values joined by “and” are separate entries in the source; they are usually repeats but may differ in a detail not shown here. Equal entries are not always repeated.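 Test compounds were applied to cells in 96-well plates for 48 hours at 5 doses. GI50 is the concentration that inhibits growth by half. Definition used: TGI = concentration required for complete inhibition of growth.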

`CCCCCCCCCCCCCCCCC1=CC(=O)C=C(OC)C1=O`: the TGI with MDA-N is over 100 µM.
With `COc1ccc2[nH]c3c4c(c5cc(C(C)(C)C)ccc5c3c2c1)C(=O)N(c1ccccc1)C4=O`, the TGI was over 100 µM in the experiment with HOP-18 NSCLC, over 100 µM in the experiment on DMS 114 small cell lung, over 100 µM with SNB-78 CNS and 30.3 µM with DLD-1 colon.
For `O=S(=O)(/C=C/C=C/S(=O)(=O)c1ccccc1)c1ccccc1`, in the experiment on MDA-N, the GI50 was 1.4 µM; the TGI was 2.88 µM and 7.28 µM. Also, in the experiment with BT-549 breast, the TGI came out at 3.15 µM.
As to `CC(=O)[O-].CC(=O)[O-].[Mn+2].c1ccc(/C(=N\Nc2ccccn2)c2ccccn2)cc1`, the TGI was determined as 22.5 µM in the experiment on MDA-N; 14.4 µM with BT-549 breast; 14.3 µM in the experiment on HOP-18 NSCLC; 0.0212 µM with DMS 114 small cell lung; 22.7 µM in the experiment with DLD-1 colon.
In the case of `CCCCCCCC[N+](C)(C)Cc1ccc(C[N+](C)(C)CCCCCCCC)cc1`, the TGI in the experiment on DMS 273 small cell lung was 36.5 µM; in the experiment on HOP-18 NSCLC, over 100 µM; in the experiment with DMS 114 small cell lung, over 100 µM; in the experiment on RXF-631 renal, over 100 µM; in the experiment on SNB-78 CNS, over 100 µM; in the experiment with DLD-1 colon it was over 100 µM.
On to `CCOC(=O)C1Cc2c(ccc(OC)c2OC)C(=O)C1N` (centres undefined), for which the TGI with XF 498 CNS, in the experiment with DMS 273 small cell lung, in the experiment on HOP-18 NSCLC, with DMS 114 small cell lung, with RXF-631 renal and in the experiment on SNB-78 CNS was over 100 µM each time. This compound also showed a TGI in the experiment with DLD-1 colon of over 100 µM.
Consider `Oc1c(Br)cc(Br)cc1CN(Cc1cc(Br)cc(Br)c1O)C1CCCCC1`, for which the results for the TGI in the experiment on MDA-N and with BT-549 breast were over 100 µM and 90.9 µM, respectively.
Regarding `COc1cc(C(=O)C/C(CCC(=O)Nc2ccccc2[N+](=O)[O-])=N\NC(=O)C(N)=O)ccc1O`, the TGI in the experiment on DMS 273 small cell lung, in the experiment with HOP-18 NSCLC, in the experiment with DMS 114 small cell lung, in the experiment on RXF-631 renal, in the experiment with SNB-78 CNS and with DLD-1 colon was over 100 µM throughout.
For the compound `OCCN1CCN(CCO)Cc2ccccc2OCCOc2ccccc2C1`, the TGI in the experiment on DMS 273 small cell lung, in the experiment with DMS 114 small cell lung, with RXF-631 renal, in the experiment on SNB-78 CNS and in the experiment with DLD-1 colon was over 100 µM in each case.
As for `N=c1nc(N)c2cc3c(N)nc(=N)c3cc12`, the TGI in the experiment on MDA-N is 4.71 µM; in the experiment with DMS 273 small cell lung it was over 100 µM; in the experiment with BT-549 breast, 51 µM; with HOP-18 NSCLC, 41.5 µM; in the experiment on DMS 114 small cell lung, 23.8 µM; in the experiment with RXF-631 renal, 53.5 µM. Further, the TGI was 48.5 µM with SNB-78 CNS and over 100 µM with DLD-1 colon.
Turning to `Cc1cc(N(CCOS(C)(=O)=O)CCOS(C)(=O)=O)ccc1C=Nc1ccc(-c2csc(-c3ccccc3)n2)c(Cl)c1`, the TGI came to 23.1 µM in the experiment with MDA-N and 73.6 µM in the experiment on BT-549 breast.
On the same counts, the results for `O=C(O)C(=O)Cc1ccc2c(c1)OCO2` are over 100 µM and over 100 µM.
On to `CCOC(=O)/C(=C/c1ccc(OC)c(OC)c1)C(=O)c1ccccc1`, for which the TGI in the experiment with XF 498 CNS amounted to 29.9 µM; with DMS 114 small cell lung, 32 µM; in the experiment on SNB-78 CNS, 56.3 µM; in the experiment with DLD-1 colon it was 34.5 µM.
Turning to `CCCCCCCCCOC(=S)NC`, the TGI in the experiment with XF 498 CNS stood at 35.3 µM; with DMS 273 small cell lung it was 33.6 µM; in the experiment on HOP-18 NSCLC, 44.2 µM; in the experiment on RXF-631 renal, 49.5 µM; in the experiment with DLD-1 colon, 34.9 µM.
For the compound `CC[C@H](C)c1occ2c(O)c(C(=O)O)c(=O)cc-2c1C`, the TGI with MDA-N was over 100 µM; with BT-549 breast, 64.6 µM.
As for `CC1(C)CC23C(=O)N(c4ccccc4)C(=Nc4ccccc4)NC2=CC(C#N)=C(C#N)C3O1` (centres undefined), the TGI in the experiment with XF 498 CNS, in the experiment with DMS 114 small cell lung, in the experiment on RXF-631 renal, in the experiment on SNB-78 CNS and with DLD-1 colon was over 100 µM throughout.
`Cc1cc(Cl)ccc1Nc1sc(C(=O)c2cc3cc(Cl)ccc3o2)c(N)c1C#N`: the TGI in the experiment on MDA-N and in the experiment on BT-549 breast was over 100 µM each time.
As to `C=C1C(=O)O[C@@H]2[C@H]1CC[C@H](C)[C@]1(O)CCC(=O)[C@@]21C`, the TGI in the experiment on MDA-N was over 10 µM.
As to `Cc1cc(C)c(C(=O)O)c(N)c1O`, the TGI in the experiment with DMS 273 small cell lung, in the experiment with DMS 114 small cell lung and in the experiment on DLD-1 colon was over 100 µM throughout.
For the compound `O=C(OC(C(=O)O)C(OC(=O)c1ccccc1)C(=O)O)c1ccccc1` (centres undefined) (tested in a mixture with another compound), the TGI in the experiment with MDA-N is 43 µM; with DMS 273 small cell lung it was > 100 µM and 14.1 µM; in the experiment with BT-549 breast, 27 µM; with HOP-18 NSCLC, 9.71 µM and 84.2 µM; with SNB-78 CNS, over 100 µM; with DLD-1 colon, over 100 µM.
Take `Cc1nc(NC(=S)NC(=O)c2ccc(Cl)c(Cl)c2)sc1C(=O)/C=C/c1ccccc1[N+](=O)[O-]`: the TGI in the experiment on XF 498 CNS is 35.9 µM; in the experiment on DMS 273 small cell lung, 48.3 µM; with HOP-18 NSCLC, 41.7 µM; with RXF-631 renal it was 56 µM; with SNB-78 CNS, 91.2 µM; in the experiment on DLD-1 colon, over 100 µM.
Turning to `Cc1cc(N(CCC#N)CCC#N)ccc1/C=C1/CN(N2C(=O)/C(=C/c3ccc(N(CCC#N)CCC#N)cc3C)N=C2c2ccccc2)C(c2ccccc2)=N1`, the TGI in the experiment with XF 498 CNS, with DMS 273 small cell lung, with HOP-18 NSCLC, in the experiment with DMS 114 small cell lung, in the experiment on SNB-78 CNS and with DLD-1 colon was over 100 µM each time.
As to `O=c1c(O)c(-c2ccc(O)c(O)c2)oc2cc(O)ccc12`, the TGI was 44.1 µM in the experiment with XF 498 CNS; 28.2 µM with DMS 273 small cell lung; 52.2 µM with HOP-18 NSCLC; 55.1 µM with DMS 114 small cell lung; 67.2 µM in the experiment with SNB-78 CNS; over 100 µM in the experiment with DLD-1 colon.
Take `CC1=CC(=O)C(C)(C2=NC(C)(C)CO2)c2ccccc21` (centres undefined): the TGI in the experiment on HOP-18 NSCLC, in the experiment with DMS 114 small cell lung, in the experiment with RXF-631 renal and in the experiment on DLD-1 colon was over 100 µM throughout.
With `CC(C)C1C(=O)N2CCCC2C2(O)OC(NC(=O)C3C=C4c5cccc6[nH]cc(c56)CC4N(C)C3)(C(C)C)C(=O)N12` (centres undefined), the TGI in the experiment with MDA-N was 67.5 µM; in the experiment on BT-549 breast, 88.6 µM.
Consider `Nn1c(CCCl)nc2c(Br)cc(Br)cc2c1=O`, for which the TGI with XF 498 CNS was 56.1 µM; in the experiment with DMS 273 small cell lung it was over 100 µM; in the experiment on HOP-18 NSCLC, over 100 µM; in the experiment with DMS 114 small cell lung, 50.5 µM; in the experiment with SNB-78 CNS, over 100 µM; in the experiment on DLD-1 colon it was over 79.4 µM.

These data come from PubChem BioAssay (NCI).
